Measured values from BindingDB's records for doi:10.7270/Q25B01BH (D3R/Abbott, 2015).

Target: Cyclin-dependent kinase 2 (Homo sapiens, UniProt P24941)
Test: OctetRed_Method1
Source text: OctetRed_Method1

Row | SMILES | Kd [µM]
1 | CCn1c(SCC(=O)Nc2ccccc2OC)nnc1-c1ccco1 [CS119] | > 100
2 | Cn1c(COc2cccc3cccnc23)nnc1SCC(N)=O [CS64] | > 100
3 | CC(=O)c1cccc(NC(=O)CSc2nnc(-c3cc4ccccc4cc3O)n2C)c1 [CS110] | > 100
4 | COc1ccc(NC(=O)CSc2nnc(-c3ccncc3)[nH]2)cc1 [CS41] | > 100
5 | COc1ccccc1NC(=O)CSc1nnc(-c2ccc([N+](=O)[O-])cc2)n1-c1ccccc1 [CS82] | > 100
6 | Cc1c(NC(=O)C2CCCN2S(=O)(=O)c2ccccc2)c(=O)n(-c2ccccc2)n1C (centres undefined) [CS68] | > 100
7 | COc1ccc(NC(=O)c2ccco2)cc1NC(=O)c1cccnc1 [CS85] | > 100
8 | Cn1c(Cc2ccccc2)nnc1Sc1ccc([N+](=O)[O-])cc1C(=O)N1CCOCC1 [CS188] | > 100
9 | CN1CCN(C(=O)CN(c2cc(C(F)(F)F)ccc2Cl)S(=O)(=O)c2ccccc2)CC1 [CS65] | > 100
10 | O=C(Cc1ccccc1[N+](=O)[O-])Nc1ccccc1C(=O)N1CCOCC1 [CS209] | > 100
11 | COC(=O)c1ccc(NC(=O)CSc2nnnn2-c2ccccc2OC)cc1 [CS77] | > 100
12 | Cc1nc2ncnn2c(O)c1NS(=O)(=O)c1ccc(Br)cc1 [CS237] | > 100
13 | COc1cccc(NC(=O)CSc2nnnn2C)c1 [CS27] | > 100
14 | O=S(=O)(NCc1ccccn1)c1cc(Cl)c(Cl)cc1Cl [CS104] | > 100
15 | COC(=O)c1ccc(NC(=O)CSc2nnc(-c3ccc(NC(C)=O)cc3)n2C)cc1 [CS59] | > 100
16 | Cc1c(NS(=O)(=O)c2cccc3nonc23)c(=O)n(-c2ccccc2)n1C [CS150] | > 100
17 | O=C(O)c1cccc(CSc2nnc(-c3ccncc3)o2)c1 [3-({[5-(pyridin-4-yl)-1,3,4-oxadiazol-2-yl]sulfanyl}methyl)benzoic acid] | > 100
18 | CN1CCN(C(=O)CN(C)S(=O)(=O)c2ccc3ccccc3c2)CC1 [CS173] | > 100
19 | CCn1c(SCC(=O)Nc2cccc(C(C)=O)c2)nnc1-c1ccncc1 [CS66] | > 100
20 | COc1cc(OC)c(NC(=O)CSc2nnc(-c3ccncc3)n2C)cc1Cl [CS96] | > 100
21 | O=C(CC1OCCN(Cc2ccccc2)C1=O)Nc1ccc2c(c1)OCCO2 (centres undefined) [CS208] | > 100

Row | SMILES | Kd [µM]
22 | O=C(Cn1c(NCCO)nc2ccccc21)c1cccc([N+](=O)[O-])c1 [CS80] | > 100
23 | Cc1cccc(NS(=O)(=O)c2cc(C(=O)Nc3ccccc3C(=O)N3CCOCC3)ccc2Cl)c1 [CS232] | > 100
24 | COc1ccc(NC(=O)CN2CCOCC2)c([N+](=O)[O-])c1 [CS189] | > 100
25 | COc1cc(NC(=O)CSc2nncn2C)cc(OC)c1OC [CS202] | > 100
26 | CCn1c(SCC(=O)Nc2cccc(OC)c2)nnc1-c1ccncc1 [CS95] | > 100
27 | CC1CCN(S(=O)(=O)c2ccc(Cl)c(C(=O)Nc3ccc(C(=O)O)cc3)c2)CC1 [CS34] | > 100
28 | COC(=O)c1ccccc1NC(=O)CSc1nnc(-c2ccc(OC)cc2)n1C [CS72] | > 100
29 | CC(=O)Nc1cccc(-c2nnc(SCC(=O)Nc3ccc(C(C)=O)cc3)n2C)c1 [CS71] | > 100
30 | COc1ccc(C(=O)C(C)Oc2cccc(NC(=O)c3cccc([N+](=O)O)c3)c2)cc1 (centres undefined) [CS112] | > 100
31 | COc1cc(-c2nnc(SCC(N)=O)n2C)cc(OC)c1OC [CS175] | > 100
32 | COc1ccc2c(C)nc(Nc3nc(C)cc(O)n3)nc2c1 | > 100
33 | COc1ccccc1NC(=O)CSc1nncn1C [CS198] | > 100
34 | COc1ccc(-c2nnc(SCC(=O)Nc3c(F)cc(F)cc3Br)n2C)cc1 [CS78] | > 100
35 | CN(CC(=O)Nc1ccccc1C(=O)N1CCCC1)CS(=O)(=O)c1ccc(Br)cc1 [CS130] | > 100
36 | Cc1cc(C)c(S(=O)(=O)N(C)CC(=O)N2CCC(C(N)=O)CC2)c(C)c1 [CS152] | > 100
37 | O=C(Nc1ccc(S(=O)(=O)Nc2ncccn2)cc1)c1c(Cl)cccc1Cl [CS93] | > 100
38 | COc1ccc(-n2c(SCC(N)=O)nnc2-c2cccs2)cc1 [CS73] | > 100
39 | Cc1ccc(NS(=O)(=O)c2cc(C(=O)Nc3ccccc3C(=O)N3CCOCC3)ccc2Cl)c(C)c1 [CS238] | > 100
40 | CC(Sc1nc2ccccc2[nH]1)C(=O)Nc1ccc(S(N)(=O)=O)cc1 (centres undefined) [CS140] | > 100
41 | Cc1ccc(S(=O)(=O)Nc2ccccc2CNc2cnc3ccccc3c2)cc1 [CS100] | > 100
42 | O=S(=O)(NCCSc1ccccn1)c1ccc(Br)cc1 [CS33] | > 100

Row | SMILES | Kd [µM]
43 | COc1ccc([N+](=O)[O-])cc1NC(=O)C(C)Oc1ccccc1C (centres undefined) [CS177] | > 100
44 | NC(=O)c1ccc(NCCCN2CCOCC2)c([N+](=O)[O-])c1 [CS69] | > 100
45 | Cc1nonc1OCCNc1cc(N2CCOCC2)ccc1[N+](=O)[O-] [CS204] | > 100
46 | COc1ccccc1CNC(=O)CSc1nnnn1-c1c(C)cccc1C [CS184] | > 100
47 | COc1ccccc1NC(=O)CSc1nnc(-c2ccccc2Cl)n1-c1ccccc1 [CS222] | > 100
48 | COc1ccc(NC(=O)CSc2nnnn2C)cc1 [CS53] | > 100
49 | COc1ccc2[nH]cc(CCNC(=O)Nc3ccc(Cl)c(Cl)c3)c2c1 [CS236] | > 100
50 | O=C(CSc1nnc(-c2ccncc2)o1)Nc1ccc(F)cc1 [CS234] | > 100
51 | COc1ccccc1-n1nnnc1SCC(=O)Nc1ccccc1SC [CS197] | > 100
52 | CS(=O)(=O)c1ccc(NC(=O)CSc2nnc(-c3ccccc3F)n2-c2ccccc2)cc1 [CS74] | > 100
53 | O=C(CSc1nnc(-c2ccccc2O)n1-c1ccccc1)Nc1cccc(C(=O)O)c1 [CS166] | > 100
54 | CCOc1ccc2nc(SCC(=O)Nc3c(C)n(C)n(-c4ccccc4)c3=O)sc2c1 [CS49] | > 100
55 | O=C(COc1ccccc1[N+](=O)[O-])Nc1ccccc1N1CCOCC1 [CS46] | > 100
56 | CCn1c(SCC(=O)Nc2ccccc2OC)nnc1-c1c[nH]c2ccccc12 [CS213] | > 100
57 | O=C(CSc1nnc(-c2ccc([N+](=O)[O-])cc2)n1-c1ccccc1)N1CCOCC1 [CS58] | > 100
58 | O=C1c2ccccc2C(=O)N1CCCc1nc(-c2cccc([N+](=O)[O-])c2)no1 [CS148] | > 100
59 | CCc1ccccc1NC(=O)CSc1nnc(-c2cccc(OC)c2)n1C [CS169] | > 100
60 | O=C(Cn1nc(-c2cccc([N+](=O)[O-])c2)c2ccccc2c1=O)NCC1CCCO1 (centres undefined) [CS102] | > 100
61 | O=S(=O)(NCc1ccccn1)c1ccc(Cl)c(Cl)c1Cl [CS116] | > 100
62 | COc1cc(OC)c(NC(=O)CSc2nnc(-c3ccncc3)n2-c2ccccc2)cc1Cl [CS109] | > 100
63 | O=C(Cn1ccc([N+](=O)[O-])n1)N1CCCc2ccccc21 [CS154] | > 100

Row | SMILES | Kd [µM]
64 | COc1ccc(NC(=O)CCSc2nnc3scc(-c4ccc(C)cc4)n23)cc1 [CS37] | > 100
65 | CCOC(=O)c1cnc(Nc2nc3ccccc3o2)nc1CN1CCN(c2ccccc2)CC1 [CS196] | > 100
66 | CCOc1ccc(C(C)=O)cc1Cc1c(O)nc(N)nc1O [CS55] | > 100
67 | Cn1nc([N+](=O)[O-])nc1Oc1ccccc1C(=O)N1CCOCC1 [CS231] | > 100
68 | COc1ccccc1NC(=O)CSc1nnc(-c2ccc(F)cc2)n1C [CS98] | > 100
69 | COc1cc(OC)c(NC(=O)CSc2nnc(-c3ccccc3)n2C)cc1Cl [CS47] | > 100
70 | COc1cccc(-n2nnnc2SCC(=O)Nc2c(C)cc(C)cc2C)c1 [CS81] | > 100
71 | COC(=O)c1ccccc1NC(=O)CSc1nnc(C23C[C@H]4C[C@@H](C2)C[C@@H](C3)C4)n1C [CS38] | > 100
72 | COC(=O)c1ccccc1Oc1nc(NC(C)C)nc(NC(C)C)n1 [CS92] | > 100
73 | COc1cc([N+](=O)[O-])ccc1NC(=O)CN1CCOCC1 [CS142] | > 100
74 | COc1ccc(C(=O)CSc2nnc(-c3ccc(OC)c(OC)c3)n2-c2ccccc2)cc1 [CS67] | > 100
75 | CS(=O)(=O)N(CC(=O)Nc1ccccc1C(=O)N1CCOCC1)c1ccc(Cl)cc1 [CS160] | > 100
76 | O=C(Cn1cnc([N+](=O)[O-])n1)Nc1ccc(N2CCOCC2)c(Cl)c1 [CS200] | > 100
77 | COc1ccc(OCC(=O)Nc2cc(-c3nn4c(C)nnc4s3)ccc2C)cc1 [CS36] | > 100
78 | CCc1nnc(NS(=O)(=O)c2ccc(NC(=O)c3ccc(F)cc3)cc2)s1 [CS31] | > 100
79 | Cc1cc(C)c(S(=O)(=O)NCc2ccccn2)cc1C [CS105] | > 100
80 | CC(=O)Nc1ccc(S(=O)(=O)Nc2c(C)nn(-c3ccccc3)c2C)cc1 [CS70] | > 100
81 | Cc1ccnc(NS(=O)(=O)c2ccc(NC(=O)c3cncc(Br)c3)cc2)n1 [CS165] | > 100
82 | CN1CCN(C(=O)c2ccccc2N(Cc2ccccc2)S(C)(=O)=O)CC1 [CS76] | > 100
83 | COc1ccc(CC(NC(C)=O)c2ccc3cccnc3c2O)cc1OC (centres undefined) [CS32] | > 100
84 | CSc1ccc(S(=O)(=O)NCc2ccccn2)cc1 [CS230] | > 100
